Experimental data reported in patent US20110015162A1, “15,16-Methylene-17-hydroxy-19-nor-21-carboxylic acid-steroid Y-lactone derivative, use thereof and medicinal products containing the derivative” (Bayer Schering Pharma Aktiengesellschaft, priority 2007, published 2011).
Where two headings read alike, the source gives them in different places.

Columns and labels:
androgen receptor [1] = biological target: T1, androgen receptor (Homo sapiens, UniProt P10275); assay: Androgen receptor binding test; design: expressed in transfected cells; settings: reference substance 3H-testosterone
T1 sequence (P10275 1-920): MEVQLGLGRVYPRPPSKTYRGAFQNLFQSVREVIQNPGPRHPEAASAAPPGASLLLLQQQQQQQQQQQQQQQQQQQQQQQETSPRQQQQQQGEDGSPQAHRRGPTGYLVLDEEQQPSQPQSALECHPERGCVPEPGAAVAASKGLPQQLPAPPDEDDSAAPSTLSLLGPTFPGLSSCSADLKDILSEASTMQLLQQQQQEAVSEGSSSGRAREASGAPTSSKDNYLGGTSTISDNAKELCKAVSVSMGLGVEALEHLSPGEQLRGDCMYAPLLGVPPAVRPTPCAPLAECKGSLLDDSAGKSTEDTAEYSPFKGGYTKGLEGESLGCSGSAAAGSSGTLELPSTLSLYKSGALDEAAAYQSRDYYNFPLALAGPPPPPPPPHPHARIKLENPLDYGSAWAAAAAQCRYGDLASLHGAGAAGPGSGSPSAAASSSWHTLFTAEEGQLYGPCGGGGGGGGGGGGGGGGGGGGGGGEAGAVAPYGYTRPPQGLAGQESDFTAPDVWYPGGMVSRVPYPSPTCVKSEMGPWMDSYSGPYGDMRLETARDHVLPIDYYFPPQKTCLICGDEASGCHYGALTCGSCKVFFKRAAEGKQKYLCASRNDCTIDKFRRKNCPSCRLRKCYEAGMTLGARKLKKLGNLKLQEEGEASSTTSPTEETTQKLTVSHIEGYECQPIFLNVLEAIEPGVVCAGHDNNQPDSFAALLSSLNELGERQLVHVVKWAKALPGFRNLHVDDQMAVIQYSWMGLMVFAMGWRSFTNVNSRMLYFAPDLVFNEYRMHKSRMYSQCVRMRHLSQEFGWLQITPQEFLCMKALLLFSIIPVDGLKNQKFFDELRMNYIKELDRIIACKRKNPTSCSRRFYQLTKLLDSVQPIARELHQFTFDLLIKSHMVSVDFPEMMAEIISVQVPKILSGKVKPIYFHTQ

androgen receptor [2] = biological target: T1, androgen receptor; assay: Androgenic/antiandrogenic action by transactivation test (PC3 reporter cells); format: cell-based; design: expressed in transfected cells; host or cells: PC3 cells
Description: (§1) The test compounds were added eight hours later, and the cells were incubated with the compounds for 16 hours. The tests were carried out in triplicate. At the end of incubation the medium containing the effector was removed and replaced with lysis buffer. After luciferase assay substrate (Promega, #E1501) had been added, the 96-well plates were then put in a microplate luminometer (Pherastar, BMG Labtech), and the luminescence was measured. The IC50 values were evaluated using software for calculating dose-effect relations.
6. Determination of Androgenic/Antiandrogenic Action by Means of Transactivation Tests:
The androgenic/antiandrogenic action of the test substances was determined as for the transactivation tests described above.
The following modifications were made: In this case reporter cell lines were used (PC3 cells) that express the androgen receptor, and a reporter construct that contains luciferase under the control of a steroid hormone-responsive promoter.
For determination of the antiandrogenic efficacy, 0.05 nM R1881 was added to the cells, in order to achieve almost maximum stimulation of the reporter gene.

[3] = biological target: T2, mineralocorticoid receptor (Homo sapiens, UniProt P08235); assay: Antimineralocorticoid action by transactivation test (MDCK reporter cells); format: cell-based; design: expressed in transfected cells; host or cells: MDCK cells; settings: for Emax: read-out: Mineralocorticoid receptor Antagonism efficacy;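 for Emax: percent inhibition of the aldosterone-stimulated reporter signal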;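 for Mineralocorticoid receptor Antagonism efficacy: percent inhibition of the aldosterone-stimulated reporter signal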
T2 sequence (P08235 1-984): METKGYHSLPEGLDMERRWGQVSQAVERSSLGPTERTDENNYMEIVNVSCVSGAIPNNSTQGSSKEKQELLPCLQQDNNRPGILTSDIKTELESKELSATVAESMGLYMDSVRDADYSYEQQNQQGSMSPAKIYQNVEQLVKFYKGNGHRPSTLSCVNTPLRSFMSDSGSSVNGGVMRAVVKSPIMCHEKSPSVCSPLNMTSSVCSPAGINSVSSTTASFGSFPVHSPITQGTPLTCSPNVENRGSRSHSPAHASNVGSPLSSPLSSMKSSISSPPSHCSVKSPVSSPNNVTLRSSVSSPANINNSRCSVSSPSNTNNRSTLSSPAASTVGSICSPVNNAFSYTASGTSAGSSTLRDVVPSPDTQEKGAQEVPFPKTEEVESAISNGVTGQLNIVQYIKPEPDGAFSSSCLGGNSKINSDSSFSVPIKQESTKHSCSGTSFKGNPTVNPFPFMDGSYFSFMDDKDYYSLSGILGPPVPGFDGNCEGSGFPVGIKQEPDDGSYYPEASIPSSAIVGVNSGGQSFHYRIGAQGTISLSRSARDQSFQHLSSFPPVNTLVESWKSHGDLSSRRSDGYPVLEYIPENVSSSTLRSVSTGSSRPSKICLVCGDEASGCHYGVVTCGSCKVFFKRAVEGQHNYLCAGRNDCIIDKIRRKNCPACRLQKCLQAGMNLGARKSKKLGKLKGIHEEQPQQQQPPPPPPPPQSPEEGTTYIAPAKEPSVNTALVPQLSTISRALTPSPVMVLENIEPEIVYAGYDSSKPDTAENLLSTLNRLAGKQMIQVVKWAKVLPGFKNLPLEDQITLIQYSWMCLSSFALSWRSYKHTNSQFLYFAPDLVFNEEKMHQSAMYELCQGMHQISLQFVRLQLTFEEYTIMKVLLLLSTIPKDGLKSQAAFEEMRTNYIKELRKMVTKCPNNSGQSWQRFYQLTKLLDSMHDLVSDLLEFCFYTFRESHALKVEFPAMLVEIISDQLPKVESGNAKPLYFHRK
Description: as §1
5. Determination of Antimineralocorticoid Action by Means of Transactivation Tests:
The antimineralocorticoid activity of the test substances was determined as for the transactivation tests described above.
The following modifications were undertaken: In this case reporter cell lines were used (MDCK cells) that express the human mineralocorticoid receptor, and transiently contain a reporter construct that contains luciferase under the control of a steroid hormone-responsive promoter.

[4] = PC-3, read-out: Androgen receptor Agonism efficacy
[5] = PC-3, read-out: Androgen receptor Antagonism efficacy
[6] = MDCK cells, with 1 nM aldosterone, read-out: Mineralocorticoid receptor Antagonism IC50
[7] = MDCK cells, with 1 nM aldosterone

Row | Structure (SMILES) | Androgen receptor Competition factor (androgen receptor [1]) | EC50 (androgen receptor [2]) [nM] | IC50 (androgen receptor [2]) [nM] | Emax (androgen receptor [2]; [4]) [%] | Emax (androgen receptor [2]; [5]) [%] | IC50 [3, 6] [nM] | Emax [3, 7] [%] | IC50 [3] [nM] | Emax ([3]; MDCK) [%]
1 | CC[C@]12CC[C@H]3[C@@H]([C@H]4C[C@H]4C4=C(Cl)C(=O)CC[C@@H]43)[C@@H]1[C@@H]1C[C@@H]1[C@@]21C=CC(=O)O1 [Example 8, 6β,7β;15β,16β-Bismethylene-4-chloro-17β-hydroxy-18-methyl-19-nor-17α-pregna-4,20(Z)-dien-3-one-21-carboxylic acid γ-lactone] | 240.0 | 250 | 130 | 32.9 | 22.9 | 960 | 31.1 |  | 
2 | CC[C@]12CC[C@H]3[C@@H](C[C@@H](CO)C4=CC(=O)CC[C@@H]43)[C@@H]1[C@@H]1C[C@@H]1[C@@]21C=CC(=O)O1 [Example 10, 17β-Hydroxy-6β-hydroxymethylene-18-methyl-15β,16β-methylene-19-nor-17α-pregna-4,20(Z)-dien-3-one-21-carboxylic acid γ-lactone] | 1000.0 | 130 | 160 | 17.9 | 15.6 | 110 | 92.7 |  | 
3 | C[C@@H]1CC2=CC(=O)CC[C@@H]2[C@H]2CC[C@@]3(C)[C@@H]([C@H]4C[C@H]4[C@@]34C=CC(=O)O4)[C@@H]21 [Example 14A, 17β-Hydroxy-7α-methyl-15α,16α-methylene-19-nor-17α-pregna-4,20(Z)-dien-3-one-21-carboxylic acid γ-lactone] | 2.3 | 13 | 1.5 | 41.8 | 21 |  |  | 3 | 83
4 | CC[C@]12CC[C@H]3[C@@H](C=CC4=CC(=O)CC[C@@H]43)[C@@H]1[C@@H]1C[C@@H]1[C@@]21C=CC(=O)O1 [Example 3, 17β-Hydroxy-18-methyl-15β,16β-methylene-19-nor-17α-pregna-4,6,20(Z)-trien-3-one-21-carboxylic acid γ-lactone] | 62.9 | 120 |  | 25.4 | 5 |  |  | 22 | 97.6
5 | C[C@]12CC[C@H]3[C@@H](C[C@@H](CO)C4=CC(=O)CC[C@@H]43)[C@@H]1[C@@H]1C[C@@H]1[C@@]21C=CC(=O)O1 [Example 21, 17β-Hydroxy-6β-hydroxymethylene-15β,16β-methylene-19-nor-17α-pregna-4,20(Z)-dien-3-one-21-carboxylic acid γ-lactone] | 1000.0 |  | 500 | 5 | 15.7 | 160 | 68 |  | 
6 | C[C@]12CC[C@H]3[C@@H](CCC4=C(Cl)C(=O)CC[C@@H]43)[C@@H]1[C@H]1C[C@H]1[C@@]21C=CC(=O)O1 [Example 18, 4-Chloro-17β-hydroxy-15α,16α-methylene-19-nor-17α-pregna-4,20(Z)-dien-3-one-21-carboxylic acid γ-lactone] | 7.3 | 12 |  | 71.5 | 5 |  |  | 830 | 37.3
7 | CC[C@@H]1CC2=CC(=O)CC[C@@H]2[C@H]2CC[C@@]3(CC)[C@@H]([C@@H]4C[C@@H]4[C@@]34C=CC(=O)O4)[C@H]12 [Example 5A, 17β-Hydroxy-7α-ethyl-18-methyl-15β,16β-methylene-19-nor-17α-pregna-4,20(Z)-dien-3-one-21-carboxylic acid γ-lactone] | 4.1 | 8.3 |  | 73 | 5 |  |  |  | 
